Settings: dihydrate; for transmittance (T %) of 10 g/dl aqueous solution: 4 g dissolved in water to 40 ml, kept at 25° C. for one day, stirred 1 min, 550 nm, optical path 10 mm, 25° C.; for liquid of 10 g/dl aqueous solution: evaluation grade of dissolution state from transmittance at 550 nm, 10 mm path
Method: Apparatus: Spectrophotometer V-570 (JAS. CO)
Spectrophotometer (UV/VIS/NIR)
measure wavelength: 550 nm
band width (near infrared): 8.0 nm
repeating interval: 3 sec.
measure cell: quartz glass cell T-1-UV-10 manufactured by TOSOH Quartz Co.
(Optical path width: 10 mm, outside width; 12.5 mm, height; 45 mm)
measure temperature: 25° C.(R.T.)
1) Stabilization of value was performed, thereby starting setting until 2 hours before measuring.
2) Determination of measuring program: Fixed Wavelength program was selected, and then initialization of wavelength was performed.
3) Injecting ion exchange water (about 3 ml) into each of blank cell and sample cell, setting on photometer, correcting zero point, and then determining a blank (Completion of measuring preparation).
RIKEN KOGYO INC., Magmix Stirrer) at 3 of speed range, and then the solution (3 ml) was injected into measuring cell immediately.
5) The cell was equipped photometer immediately after confirming absence of bubble in the cell.
6) After setting, the cell was stood for 1 min, and then subjected to measurement.
7) The transmittance (% T) is the value measured with photometer.
Under the above conditions, the transmittance was obtained accurately although measuring sample comprised insoluble material, because insoluble material was dispersed uniformly in the whole cell.

| Substance | transmittance (T %) of 10 g/dl aqueous solution [%] | liquid of 10 g/dl aqueous solution |
| --- | --- | --- |
| zinc pyrrolidonecarboxylate dihydrate [Com. Ex. 3, reference compound] | 60.3 | – |
| zinc pyrrolidonecarboxylate dihydrate [Ex. 5] | 97.9 | ⊚ |
| zinc pyrrolidonecarboxylate dihydrate [Ex. 4] | 97.6 | ⊚ |
| zinc pyrrolidonecarboxylate dihydrate [Com. Ex. 1, reference compound] | 17.5 | – |
| zinc pyrrolidonecarboxylate dihydrate [Ex. 7] | 95.7 | – |
| zinc pyrrolidonecarboxylate dihydrate [Com. Ex. 4, reference compound] | 19.9 | – |
| zinc pyrrolidonecarboxylate dihydrate [Ex. 2] | 97.6 | ⊚ |
| zinc pyrrolidonecarboxylate dihydrate [Ex. 3] | 96.9 | ◯ |
| zinc pyrrolidonecarboxylate dihydrate [Ex. 1] | 96.6 | ◯ |
| zinc pyrrolidonecarboxylate dihydrate [Com. Ex. 2, reference compound] | 30.6 | – |
| zinc pyrrolidonecarboxylate dihydrate [Ex. 6] | 86.1 | Δ (Δ: 93-85%) |

From patent US20050239764A1, “Zinc pyrrolidonecarboxylate dihydrate and method of producing the same” (Ajinomoto Co., Inc., priority 2004, published 2005)
